Some test systems named below: M14 melanoma; SNB-19 CNS; SF-268 CNS; UACC-62 melanoma; CAKI-1 renal; OVCAR-4 ovarian; HCT-116 colon; CCRF-CEM leukemia; BT-549 breast; HOP-92 NSCLC.
What all share (assay): inhibition of tumour cell growth, NCI panel, 48 h

Our source for the TGI and GI50 values is PubChem BioAssay (NCI).

The structures appear in SMILES notation.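 Exposure lasted 48 hours, with cells grown in 96-well plates and compounds tested at five concentrations. GI50 is the concentration that inhibits growth by half. At the TGI there is no net growth.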 Where only a bound is given, the exact number is not on record here.

For the compound `Cc1c(-c2nc(N)nc(C3CC3)c2C)nc(N)nc1C1CC1`, the TGI in the test with M14 melanoma, in the test with SNB-19 CNS, in the test with SF-268 CNS, with UACC-62 melanoma, in the test with CAKI-1 renal and in the test on OVCAR-4 ovarian was over 100 µM in each case. In addition, the TGI in the test on HCT-116 colon, in the test on CCRF-CEM leukemia, in the test with BT-549 breast and in the test on HOP-92 NSCLC was over 100 µM in each case.

On to `CS(=O)(=O)Nc1ccc(-c2ccc3c(NC(=O)C4CC4)n[nH]c3c2)cc1`, for which the GI50 was 24.9 µM in the test on M14 melanoma; over 25 µM with SNB-19 CNS; over 25 µM in the test on SF-268 CNS; 22.7 µM in the test with UACC-62 melanoma; over 25 µM with CAKI-1 renal; 7.2 µM with OVCAR-4 ovarian. The GI50 is over 25 µM with HCT-116 colon, 24.2 µM in the test with CCRF-CEM leukemia, over 19.2 µM in the test on BT-549 breast and over 25 µM with HOP-92 NSCLC. The TGI in the test on M14 melanoma, in the test with SNB-19 CNS, in the test with SF-268 CNS, in the test on UACC-62 melanoma, in the test with CAKI-1 renal and with OVCAR-4 ovarian was over 25 µM each time. For the same compound, the TGI with HCT-116 colon, with CCRF-CEM leukemia, in the test on BT-549 breast and with HOP-92 NSCLC was over 25 µM in each case.

As to `C=CC(=O)N1CCN(c2ncnc3c(F)c(-c4c(O)cccc4F)c(Cl)cc23)CC1`, the GI50 in the test on M14 melanoma was 12.6 µM; in the test with SNB-19 CNS, 14 µM; in the test on SF-268 CNS, 11.5 µM; in the test with UACC-62 melanoma, 9.36 µM; with CAKI-1 renal it was 12.6 µM; in the test on OVCAR-4 ovarian it was 14.9 µM. The GI50 with HCT-116 colon is 9.19 µM; with CCRF-CEM leukemia it was 9.79 µM; in the test on BT-549 breast, 3.87 µM; in the test on HOP-92 NSCLC, 12.8 µM. Besides, the TGI turned out to be 28.9 µM in the test with M14 melanoma; 27.3 µM in the test with SNB-19 CNS; 37.2 µM in the test on SF-268 CNS; 22.1 µM with UACC-62 melanoma; 25.8 µM with CAKI-1 renal; 43.4 µM with OVCAR-4 ovarian. Also, the TGI was 23.1 µM in the test with HCT-116 colon, over 100 µM with CCRF-CEM leukemia, 17.3 µM with BT-549 breast and 33.6 µM with HOP-92 NSCLC.

`CCCCCC(C(O)C#N)C(O)(C(F)(F)F)C(F)(F)F` (centres undefined): the TGI in the test on M14 melanoma, with SNB-19 CNS, in the test with SF-268 CNS, in the test on UACC-62 melanoma, in the test on CAKI-1 renal and in the test on OVCAR-4 ovarian was over 10 µM throughout. The TGI in the test with HCT-116 colon, in the test with CCRF-CEM leukemia, in the test on BT-549 breast and in the test on HOP-92 NSCLC was over 10 µM throughout.

Regarding `Clc1ccc(OCc2nnc3n2N=C(c2ccc(Cl)cc2Cl)CS3)c(Cl)c1`, the GI50 in the test with M14 melanoma was 22.7 µM; in the test with SNB-19 CNS, 34.3 µM; with SF-268 CNS it was 22.9 µM; in the test with UACC-62 melanoma, 14.1 µM; in the test on CAKI-1 renal, 26.6 µM; in the test with OVCAR-4 ovarian, 28.1 µM. The GI50 in the test with HCT-116 colon was 15.2 µM; in the test with CCRF-CEM leukemia it was 22.3 µM; in the test with BT-549 breast, 22.4 µM; in the test on HOP-92 NSCLC, 19.6 µM. For the same compound, the TGI in the test on M14 melanoma is 51 µM; with SNB-19 CNS, over 100 µM; in the test on SF-268 CNS it was 66.5 µM; in the test on UACC-62 melanoma, 32.2 µM; in the test with CAKI-1 renal, 83 µM; in the test on OVCAR-4 ovarian, over 100 µM. The TGI with HCT-116 colon amounted to 32.8 µM; in the test with CCRF-CEM leukemia, 89.7 µM; in the test on BT-549 breast, 59.4 µM; in the test with HOP-92 NSCLC, 89.2 µM.

Take `C=C1C(=O)O[C@H]2[C@H]1CC/C(COC(=O)c1cc3cc(OC)ccc3[nH]1)=C\CC[C@@]1(C)O[C@@H]21`: the GI50 was 1.27 µM with M14 melanoma; 1.57 µM in the test on SNB-19 CNS; 1.66 µM with SF-268 CNS; 1.38 µM in the test on UACC-62 melanoma; 1.71 µM in the test on CAKI-1 renal; 1.63 µM in the test on OVCAR-4 ovarian. Further, the GI50 was 0.425 µM with HCT-116 colon, 0.348 µM with CCRF-CEM leukemia, 1.06 µM in the test with BT-549 breast and 0.445 µM in the test with HOP-92 NSCLC. The TGI in the test with M14 melanoma came out at 2.98 µM; in the test on SNB-19 CNS, 3.2 µM; in the test with SF-268 CNS, 3.65 µM; in the test on UACC-62 melanoma, 2.72 µM; in the test with CAKI-1 renal it was 3.48 µM; with OVCAR-4 ovarian, 3.24 µM. In addition, the TGI in the test on HCT-116 colon worked out at 1.72 µM; in the test with CCRF-CEM leukemia it was 1.57 µM; in the test with BT-549 breast, 2.86 µM; in the test on HOP-92 NSCLC, 1.83 µM.

Take `CC1=C(C)C(=O)O[C@@H]([C@](C)(O)[C@]2(O)CC[C@@]3(O)[C@@H]4C[C@H]5O[C@]56CC=CC(=O)[C@]6(C)[C@H]4CC[C@]23C)C1`: the GI50 in the test with M14 melanoma was 0.101 µM; in the test with SNB-19 CNS, 0.395 µM; with SF-268 CNS it was 0.424 µM; in the test on UACC-62 melanoma it was 0.0996 µM; in the test with CAKI-1 renal, 0.18 µM; in the test on OVCAR-4 ovarian, 0.121 µM. The GI50 is 0.113 µM with HCT-116 colon, 0.163 µM in the test with CCRF-CEM leukemia, 0.335 µM with BT-549 breast and 0.0651 µM in the test with HOP-92 NSCLC. The TGI with M14 melanoma is 1.67 µM; in the test on SNB-19 CNS it was 13.7 µM; with SF-268 CNS it was 2.35 µM; in the test with UACC-62 melanoma, 1.57 µM; with CAKI-1 renal, 2.11 µM; in the test with OVCAR-4 ovarian it was 15.8 µM. Moreover, the TGI came out at 1.09 µM with HCT-116 colon, 1.45 µM with BT-549 breast and 1.91 µM with HOP-92 NSCLC.

As to `CC(C)(C)c1nc2c(o1)C(=Nc1ccc(F)cc1)c1ccccc1C2=O`, the TGI was 9.35 µM with M14 melanoma; 26.6 µM in the test on SNB-19 CNS; over 62.9 µM with SF-268 CNS; 6.62 µM with UACC-62 melanoma; over 100 µM in the test on CAKI-1 renal; over 100 µM in the test with OVCAR-4 ovarian. Also, the TGI was 38.2 µM in the test with HCT-116 colon, over 100 µM in the test on CCRF-CEM leukemia, 12.9 µM in the test with BT-549 breast and over 97.7 µM in the test with HOP-92 NSCLC.

With `CCn1c(-c2nonc2N)nc2ccc(F)cc21`, the GI50 with M14 melanoma, with SNB-19 CNS, with SF-268 CNS, with UACC-62 melanoma, with CAKI-1 renal and with OVCAR-4 ovarian was over 25 µM each time. For the same compound, the GI50 is over 25 µM with HCT-116 colon, over 25 µM with CCRF-CEM leukemia, over 25 µM in the test on BT-549 breast and 7.36 µM in the test with HOP-92 NSCLC. The TGI with M14 melanoma, in the test on SNB-19 CNS, with SF-268 CNS, in the test with UACC-62 melanoma, with CAKI-1 renal and in the test with OVCAR-4 ovarian was over 25 µM in each case. The TGI in the test with HCT-116 colon, in the test with CCRF-CEM leukemia, in the test with BT-549 breast and in the test on HOP-92 NSCLC was over 25 µM each time.
